From patent US7608718B2, “4,5-dihydro-1H-pyrazole derivatives having potent CB1-antagonistic activity” (Solvay Pharmaceuticals B.V., priority 2001, dated 2009)

| Structure (SMILES) | melting point [°C] |
| --- | --- |
| CCN(CC)S(=O)(=O)N=C(SC)N1CC(c2ccccc2)C(c2ccc(Cl)cc2)=N1 (stereo not shown) [Example 37, 3-(4-Chlorophenyl)-N-((diethylamino)sulfonyl)-4-phenyl-4,5-dihydro-1H-pyrazole-1-carboximidothioic acid methyl ester] | 141 to 143 |
| CSC(=NS(=O)(=O)N1CCc2ccccc2C1)N1CC(c2ccccc2)C(c2ccc(Cl)cc2)=N1 (stereo not shown) [Example 38, 3-(4-Chlorophenyl)-4-phenyl-N-((1,2,3,4-tetrahydroisoquinolin-2-yl)sulfonyl)-4,5-dihydro-1H-pyrazole-1-carboximidothioic acid methyl ester] | 143 to 145 |
| CCN(c1ccccc1)S(=O)(=O)N=C(SC)N1CC(c2ccccc2)C(c2ccc(Cl)cc2)=N1 (stereo not shown) [Example 39, 3-(4-Chlorophenyl)-N-(((ethyl)phenylamino)sulfonyl)-4-phenyl-4,5-dihydro-1H-pyrazole-1-carboximidothioic acid methyl ester] | 143 to 146 |
| CCN(C)S(=O)(=O)N=C(SC)N1CC(c2cccnc2)C(c2ccc(Cl)cc2)=N1 (stereo not shown) [Example 44, 3-(4-Chlorophenyl)-N-(((ethyl)methylamino)sulfonyl)-4-(pyridin-3-yl)-4,5-dihydro-1H-pyrazole-1-carboximidothioic acid methyl ester] | 133 to 136 |
| CSC(=NS(=O)(=O)N1CCCCC1)N1CC(c2cccnc2)C(c2ccc(Cl)cc2)=N1 (stereo not shown) [Example 45, 3-(4-Chlorophenyl)-N-((piperidin-1-yl)sulfonyl)-4-(pyridin-3-yl)-4,5-dihydro-1H-pyrazole-1-carboximidothioic acid methyl ester] | 182 to 185 |
| CSC(=NS(=O)(=O)N1CCOCC1)N1CC(c2ccccc2F)C(c2ccc(Cl)cc2)=N1 (stereo not shown) [Example 47, 3-(4-Chlorophenyl)-4-(2-fluorophenyl)-N-((morpholin-4-yl)sulfonyl)-4,5-dihydro-1H-pyrazole-1-carboximidothioic acid methyl ester] | 205 to 207 |
| CSC(=NS(=O)(=O)N1CCCCC1)N1CC(c2ccccc2F)C(c2ccc(Cl)cc2)=N1 (stereo not shown) [Example 48, 3-(4-Chlorophenyl)-4-(2-fluorophenyl)-N-((piperidin-1-yl)sulfonyl)-4,5-dihydro-1H-pyrazole-1-carboximidothioic acid methyl ester] | 196 to 198 |
| CSC(=NS(=O)(=O)N1CCOCC1)N1CC(c2c(F)cccc2F)C(c2ccc(Cl)cc2)=N1 (stereo not shown) [Example 50, 3-(4-Chlorophenyl)-4-(2,6-difluorophenyl)-N-((morpholin-4-yl)sulfonyl)-4,5-dihydro-1H-pyrazole-1-carboximidothioic acid methyl ester] | 231 to 233 |
| CSC(=NS(=O)(=O)N1CCCCC1)N1CC(c2c(F)cccc2F)C(c2ccc(Cl)cc2)=N1 (stereo not shown) [Example 51, 3-(4-Chlorophenyl)-4-(2,6-difluorophenyl)-N-((piperidin-1-yl)sulfonyl)-4,5-dihydro-1H-pyrazole-1-carboximidothioic acid methyl ester] | 221 to 225 |
| CSC(=NS(=O)(=O)N1CCS(=O)(=O)CC1)N1CC(c2ccccc2)C(c2ccc(Cl)cc2)=N1 (stereo not shown) [Example 53, 3-(4-Chlorophenyl)-N-((1,1-dioxidothiomorpholin-4-yl)sulfonyl)-4-phenyl-4,5-dihydro-1H-pyrazole-1-carboximidothioic acid methyl ester] | 216 to 217 |

Further lines, results first:

| melting point [°C] | Structure (SMILES) |
| --- | --- |
| 142 to 144 | O=S(=O)(N=C(NC1CC1)N1CC(c2ccccc2)C(c2ccc(Cl)cc2)=N1)N1CCCCC1 (stereo not shown) [Example 56, 3-(4-Chlorophenyl)-N-cyclopropyl-4-phenyl-N′-((piperidin-1-yl)sulfonyl)-4,5-dihydro-1H-pyrazole-1-carboxamidine] |
| 180 to 182 | CCN(CC)S(=O)(=O)N=C(NC)N1CC(O)(c2ccccc2)C(c2ccc(Cl)cc2)=N1 (stereo not shown) [Example 57, 3-(4-Chlorophenyl)-N′-((diethylamino)sulfonyl)-N-methyl-4-hydroxy-4-phenyl-4,5-dihydro-1H-pyrazole-1-carboxamidine] |
| 122 to 123 | CCN(CC)S(=O)(=O)N=C(NC)N1CC(c2ccccc2)C(c2ccc(Cl)s2)=N1 (stereo not shown) [Example 58, 3-(5-Chlorothien-2-yl)-N′-((diethylamino)sulfonyl)-N-methyl-4-phenyl-4,5-dihydro-1H-pyrazole-1-carboxamidine] |
| 169 to 170 | CC(C)NC(=NS(=O)(=O)N(C)C)N1CC(c2ccccc2)C(c2ccc(Cl)cc2)=N1 (stereo not shown) [Example 59, 3-(4-Chlorophenyl)-N′-((dimethylamino)sulfonyl)-N-isopropyl-4-phenyl-4,5-dihydro-1H-pyrazole-1-carboxamidine] |
| 144 to 146 | CN1CCC(NC(=NS(=O)(=O)N(C)C)N2CC(c3ccccc3)C(c3ccc(Cl)cc3)=N2)CC1 (stereo not shown) [Example 60, 3-(4-Chlorophenyl)-N′-((dimethylamino)sulfonyl)-N-(1-methylpiperidin-4-yl)-4-phenyl-4,5-dihydro-1H-pyrazole-1-carboxamidine] |
| 135 to 137 | CCN(CC)S(=O)(=O)N=C(N(C)C)N1CC(O)(c2ccccc2)C(c2ccc(Cl)cc2)=N1 (stereo not shown) [Example 63, 3-(4-Chlorophenyl)-N′-((diethylamino)sulfonyl)-N,N-dimethyl-4-hydroxy-4-phenyl-4,5-dihydro-1H-pyrazole-1-carboxamidine] |
| 159 to 160 | CCN(CC)S(=O)(=O)N=C(N(C)C)N1CC(c2ccccc2)C(c2ccc(F)cc2)=N1 (stereo not shown) [Example 64, N′-((Diethylamino)sulfonyl)-N,N-dimethyl-3-(4-fluorophenyl)-4-phenyl-4,5-dihydro-1H-pyrazole-1-carboxamidine] |
| 162 to 165 | CCNC(=NS(=O)(=O)N(CC)CC)N1CC(O)(c2ccccc2)C(c2ccc(Cl)cc2)=N1 (stereo not shown) [Example 68, 3-(4-Chlorophenyl)-N′-((diethylamino)sulfonyl)-N-ethyl-4-hydroxy-4-phenyl-4,5-dihydro-1H-pyrazole-1-carboxamidine] |
| 109 to 111 | CCN(CC)S(=O)(=O)N=C(NC)N1CC(c2ccncc2)C(c2ccc(Cl)cc2)=N1 (stereo not shown) [Example 71, N′-((Diethylamino)sulfonyl)-3-(4-chlorophenyl)-N-methyl-4-(pyridin-4-yl)-4,5-dihydro-1H-pyrazole-1-carboxamidine] |
| 157 to 159 | CNC(=NS(=O)(=O)N(C)C)N1CC(c2cccnc2)C(c2ccc(Cl)cc2)=N1 (stereo not shown) [Example 72, 3-(4-Chlorophenyl)-N′-((dimethylamino)sulfonyl)-N-methyl-4-(pyridin-3-yl)-4,5-dihydro-1H-pyrazole-1-carboxamidine] |
| 178 to 182 | CNC(=NS(=O)(=O)N(C)C)N1CC(c2ccncc2)C(c2ccc(Cl)cc2)=N1 (stereo not shown) [Example 74, 3-(4-Chlorophenyl)-N′-((dimethylamino)sulfonyl)-N-methyl-4-(pyridin-4-yl)-4,5-dihydro-1H-pyrazole-1-carboxamidine] |
| 174 to 177 | CNC(=NS(=O)(=O)N1CCCCC1)N1CC(c2cccnc2)C(c2ccc(Cl)cc2)=N1 (stereo not shown) [Example 78, 3-(4-Chlorophenyl)-N-methyl-N′-((piperidin-1-yl)sulfonyl)-4-(pyridin-3-yl)-4,5-dihydro-1H-pyrazole-1-carboxamidine] |
